Our source for the IC50 values is patent US20140349989A1, “COMPOUNDS AND THERAPEUTIC USES THEREOF” (Alzheimer's Institute of America, priority 2011, published 2014).

Each structure is given as a SMILES string.

A short description of the first data set: Cytotoxicity Assay (HCT116, CellTiter-Glo). It is filed as cell-based. To be noted: human, HCT116 cell cytotoxicity IC50. As to the method: HCT116 cells were seeded in 96 well plates (Greiner Bio-One, Monroe, N.C.) and allowed to settle overnight. Test compound dissolved in dimethyl sulfoxide (DMSO) was added and drug incubation proceeded for 72 hours. When applicable, a 1000× solution of nicotinic acid (NA; Sigma-Aldrich, St. Louis, Mo.) dissolved in water was generated, and 1×NA (10 μM final concentration) was added at the same time as the test compound. After 72 hour, 50 μL of CellTiter-Glo Luminescent Cell Viability Assay reagent (Promega Corporation, Madison, Wis.) was added to cells in 200 μL of cellular media. After a proscribed incubation period, luminescence was measured using a TopCount NXT plate reader (PerkinElmer, Waltham, Mass.).
On the technique in general: In ATP-based viability assays light output follows the ATP content of the culture.
In general, IC50 refers to the concentration at which inhibition is half-maximal. `O=C(NCc1cccnc1)Nc1ccc(-n2cc(C(=O)N3CCC(O)CC3)c3ccccc32)c(Cl)c1` [Compound 88, 1-(3-Chloro-4-{3-[(4-hydroxy-piperidin-1-yl)carbonyl]-1H-indol-1-yl}phenyl)-3-(pyridin-3-ylmethyl)urea] came in with a half-inhibitory concentration (IC50) at 72 h of at least 100 nM.

With `O=C(NCc1cccnc1)Nc1ccc(N2CC3(CCNCC3)c3ccccc32)cc1` [Compound 80, 1-(Pyridin-3-ylmethyl)-3-[4-(spiro[indole-3,4′-piperidin]-1(2H)-yl)phenyl]urea], the IC50 at 72 h is under 100 nM.

Turning to `Cc1c(Cc2ccc(F)cc2)c(C(=O)N2CCC(N3CCCCC3)CC2)nn1-c1ccc(NC(=O)NCc2cccnc2)cc1` [Compound 81, 1-{4-[3-(1,4′-Bipiperidin-1′-ylcarbonyl)-4-(4-fluorobenzyl)-5-methyl-1H-pyrazol-1-yl]phenyl}-3-(pyridin-3-ylmethyl)urea], the IC50 at 72 h is at least 100 nM.

On to `CCOCCOCCN1CCC2(CC1)CN(c1ccc(NC(=O)NCc3cccnc3)cc1)c1ccccc12` [Compound 126, 1-(4-{1′-[2-(2-Ethoxy-ethoxy)ethyl]spiro[indole-3,4′-piperidin]-1(2H)-yl}phenyl)-3-(pyridin-3-ylmethyl)urea], for which the IC50 at 72 h was at least 100 nM.

Take `O=C(NCc1cccnc1)Nc1ccc(-n2cc(-c3nccn3CCCN3CCCC3)c3ccccc32)cc1` [Compound 120, 1-(Pyridin-3-ylmethyl)-3-[4-(3-{1-[3-(pyrrolidin-1-yl)propyl]-1H-imidazol-2-yl}-1H-indol-1-yl)phenyl] urea]: the IC50 at 72 h was at least 100 nM.

`Cc1c(-c2ccccc2)c(C(=O)NCCCN2CCCCC2)nn1-c1ccc(NC(=O)NCc2cccnc2)cc1` [Compound 50, 5-Methyl-4-phenyl-N-[3-(piperidin-1-yl)propyl]-1-(4-{[(pyridin-3-ylmethyl)carbamoyl]ami-no}phenyl)-1H-pyrazole-3-carboxamide]: the half-maximal inhibitory concentration (IC50) at 72 h is under 100 nM.

Still in this data set, the particulars now being: human, HCT116 cells, 72 hours drug incubation, CellTiter-Glo luminescence; read-out: HCT116 cell cytotoxicity IC50.
For the molecule `O=C(NCc1cccnc1)Nc1ccc(-n2cc([C@H]3CC[C@@H](N4CC(F)(F)C4)CC3)c3ccccc32)cc1` [Compound 94, 1-[4-[3-[4-(3,3-difluoroazetidin-1-yl)cyclohexyl]indol-1-yl]phenyl]-3-(3-pyridylmethyl)urea], the IC50 at 72 h is under 100 nM.

On to `O=C(NCc1cccnc1)Nc1ccc(-n2cc(C3CCN(C4CCCC4)CC3)c3ccccc32)cc1` [Compound 110, 1-{4-[3-(1-Cyclopentyl-piperidin-4-yl)-1H-indol-1-yl]phenyl}-3-(pyridin-3-ylmethyl)urea], for which the IC50 at 72 h was under 100 nM.

For `Cc1c(C(=O)N2CCN(C3CCC(F)(F)CC3)CC2)c2ccccc2n1-c1ccc(NC(=O)NCc2cccnc2)cc1` [Compound 93, 1-[4-(3-{[4-(4,4-Difluoro-cyclohexyl)pipe-razin-1-yl]carbonyl}-2-methyl-1H-indol-1-yl)phenyl]-3-(pyridin-3-ylmethyl)urea], the half-inhibitory concentration (IC50) at 72 h was under 100 nM.

Regarding `O=C(NCCCCCn1cc(C(=O)N2CCC(N3CCC(F)(F)CC3)CC2)c2ccccc21)NCc1cccnc1` [Compound 32, 1-(5-{3-[(4,4-Difluoro-1,4′-bipiperidin-1′-yl)carbonyl]-1H-indol-1-yl}pentyl)-3-(pyridin-3-ylmethyl)urea], the IC50 at 72 h was under 100 nM.

`O=C(NCc1cccnc1)Nc1ccc(-n2cc(C3CCN(CC(F)F)CC3)c3ccccc32)cc1` [Compound 40, 1-(4-{3-[1-(2,2-Difluoroethyl)piperidin-4-yl]-1H-indol-1-yl}phenyl)-3-(pyridin-3-ylmethyl)urea]: the half-maximal inhibitory concentration (IC50) at 72 h was under 100 nM.

For `CN1CCN(C2CCN(C(=O)c3cn(CCCNC(=O)NCc4cccnc4)c4ccccc34)CC2)CC1` [Compound 125, 1-[3-(3-{[4-(4-Methylpiperazin-1-yl)piperidin-1-yl]carbonyl}-1H-indol-1-yl)propyl]-3-(pyridin-3-ylmethyl)urea], the half-inhibitory concentration (IC50) at 72 h was under 100 nM.

Consider `O=C(/C=C/c1ccc(-n2nc(C(=O)N3CCC(N4CCOCC4)CC3)c3ccccc32)cc1)NCc1cccnc1` [Compound 171, (2E)-3-[4-(3-{[4-(Morpholin-4-yl)piperidin-1-yl]carbonyl}-1H-indazol-1-yl)phenyl]-N-(pyridin-3-ylmethyl)prop-2-enamide], for which the half-maximal inhibitory concentration (IC50) at 72 h was under 100 nM.

For `CN1CCN(C2CCN(C(=O)c3cn(CCCCCNC(=O)NCc4cccnc4)c4ccccc34)CC2)CC1` [Compound 64, 1-[5-(3-{[4-(4-Methylpiperazin-1-yl)piperidin-1-yl]carbonyl}-1H-indol-1-yl)pentyl]-3-(pyridin-3-ylmethyl) urea], the IC50 at 72 h is under 100 nM.

On to `CN1CCN(C2CCN(C(=O)c3cn(CCCCNC(=O)NCc4cccnc4)c4ccccc34)CC2)CC1` [Compound 115, 1-[4-(3-{[4-(4-Methylpiperazin-1-yl)piperidin-1-yl]carbonyl}-1H-indol-1-yl)butyl]-3-(pyridin-3-ylmethyl)urea], for which the IC50 at 72 h is under 100 nM.

For the molecule `CN(C)CC(=O)N1CCC2(CC1)CN(c1ccc(NC(=O)NCc3cccnc3)cc1)c1ccccc12` [Compound 112, 1-{4-[1′-(N,N-Dimethylglycyl)spiro[indole-3,4′-piperidin]-1(2H)-yl]phenyl}-3-(pyridin-3-ylmethyl)urea], the IC50 at 72 h is under 100 nM.

With `O=C(NCCCCC(=O)c1cn(C2CCN(CCF)CC2)c2ccccc12)NCc1cccnc1` [Compound 39], the IC50 at 72 h is under 100 nM.

On to `O=C(NCCCCCn1cc(C(=O)N2CCN(C3CCCCC3)CC2)c2ccccc21)NCc1cncs1` [Compound 124, 1-(5-{3-[(4-Cyclohexyl-piperazin-1-yl)carbonyl]-1H-indol-1-yl}pentyl)-3-(1,3-thiazol-5-ylmethyl) urea], for which the IC50 at 72 h is under 100 nM.

`C[C@@H]1CN(CCc2cn(-c3ccc(NC(=O)NCc4cccnc4)cc3)c3ccccc23)C[C@H](C)O1` [Compound 53, 1-[4-(3-{2-[(2R,6S)-2,6-Dimethyl-morpholin-4-yl]ethyl}-1H-indol-1-yl)phenyl]-3-(pyridin-3-ylmethyl)urea]: the 50% inhibitory concentration (IC50) at 72 h was under 100 nM.

With `O=C(/C=C/c1ccc(-n2cc(CCN3CCCCC3)c3ccccc32)cc1)NCc1cccnc1` [Compound 182, (2E)-3-(4-{3-[2-(Piperidin-1-yl)ethyl]-1H-indol-1-yl}phenyl)-N-(pyridin-3-ylmethyl)prop-2-enamide], the half-inhibitory concentration (IC50) at 72 h is under 100 nM.

Take `Cc1c(-c2ccccc2)c(C(=O)N2CCC(N3CCCCC3)CC2)nn1-c1ccc(NC(=O)NCc2cccnc2)cc1` [Compound 73, 1-{4-[3-(1,4′-Bipiperidin-1′-ylcarbonyl)-5-methyl-4-phenyl-1H-pyrazol-1-yl]phenyl}-3-(pyridin-3-ylmethyl)urea]: the IC50 at 72 h was under 100 nM.

In the case of `O=C(NCCCn1cc(C(=O)N2CCC(N3CCCCC3)CC2)c2ccccc21)NCc1cccnc1` [Compound 36, 1-{3-[3-(1,4′-Bipiperidin-1′-ylcarbonyl)-1H-indol-1-yl]propyl}-3-(pyridin-3-ylmethyl)urea], the 50% inhibitory concentration (IC50) at 72 h is at least 100 nM.

For the molecule `CN1CCC(c2cn(-c3ccc(NC(=O)NCc4cccnc4)cc3)c3ccccc23)CC1` [Compound 111, 1-{4-[3-(1-Methylpiperidin-4-yl)-1H-indol-1-yl]phenyl}-3-(pyridin-3-ylmethyl)urea], the IC50 at 72 h was under 100 nM.

For `CN(C)C1CCN(C(=O)c2nn(-c3ccc(/C=C/C(=O)NCc4cccnc4)cc3)c3ccccc23)C1` (centres unmarked) [Compound 166, (2E)-3-[4-(3-{[3-(Dimethylamino)pyrrolidin-1-yl]carbonyl}-1H-indazol-1-yl)phenyl]-N-(pyridin-3-ylmethyl)prop-2-enamide], the half-inhibitory concentration (IC50) at 72 h was under 100 nM.

As to `O=C(NCCCCCCC1CNc2ccccc21)NCc1cccnc1` (centres unmarked) [Compound 97, 1-[6-(2,3-Dihydro-1H-indol-3-yl)hexyl]-3-(pyridin-3-ylmethyl)urea], the IC50 at 72 h is under 100 nM.

As for `O=C(NCc1cncc(F)c1)Nc1ccc(-n2cc(CCN3CCOCC3)c3ccccc32)cc1` [Compound 103, 1-[(5-Fluoro-pyridin-3-yl)methyl]-3-(4-{3-[2-(morpholin-4-yl)ethyl]-1H-indol-1-yl}phenyl)urea], the half-inhibitory concentration (IC50) at 72 h is under 100 nM.

For the molecule `CC(C)(C)OC(=O)N1CCC(CCn2ccnc2-c2cn(-c3ccc(NC(=O)NCc4cccnc4)cc3)c3ccccc23)CC1` [Compound 87, tert-Butyl 4-(2-{2-[1-(4-{[(pyridin-3-yl-methyl)carbamoyl]amino}phenyl)-1H-indol-3-yl]-1H-imidazol-1-yl}ethyl)piperidine-1-carboxylate], the half-maximal inhibitory concentration (IC50) at 72 h was under 100 nM.

Take `O=C(NCc1cccnc1)Nc1ccc(-n2cc(CCN3CC[C@@H](F)C3)c3ccccc32)cc1` [Compound 38, 1-[4-(3-{2-[(3R)-3-Fluoropyrrolidin-1-yl]ethyl}-1H-indol-1-yl)phenyl]-3-(pyridin-3-ylmethyl)urea]: the IC50 at 72 h was under 100 nM.

As for `CC1CCCN1CCc1cn(-c2ccc(/C=C/C(=O)NCc3cccnc3)cc2)c2ccccc12` (centres unmarked) [Compound 161, (2E)-3-(4-{3-[2-(2-Methylpyrrolidin-1-yl)ethyl]-1H-indol-1-yl)phenyl)-N-(pyridin-3-ylmethyl)prop-2-enamide], the concentration for half-maximal inhibition (IC50) at 72 h was under 100 nM.

Turning to `O=C(NCc1cccnc1)Nc1ccc(-n2cc(CCN3CCC(F)(F)C3)c3ccccc32)cc1` [Compound 69, 1-(4-{3-[2-(3,3-Difluoropyrrolidin-1-yl)ethyl]-1H-indol-1-yl}phenyl)-3-(pyridin-3-ylmethyl) urea], the IC50 at 72 h was under 100 nM.

Consider `O=C(NCc1cccnc1)Nc1ccc(-c2nn(CCN3CCCCC3)c3ccccc23)cc1` [Compound 75, 1-[4-[1-[2-(1-piperidyl)ethyl]indazol-3-yl]phenyl]-3-(3-pyridylmethyl)urea], for which the concentration for half-maximal inhibition (IC50) at 72 h is under 100 nM.

For the molecule `O=C(NCc1cccnc1)Nc1ccc2c(C(=O)N3CCC(N4CCCCC4)CC3)cn(Cc3ccccc3)c2c1` [Compound 68, 1-[1-Benzyl-3-(1,4′-bipiperidin-1′-yl-carbonyl)-1H-indol-6-yl]-3-(pyridin-3-ylmethyl)urea], the IC50 at 72 h is at least 100 nM.
